Results: the kinase profiling compilation of Christmann-Franck et al. (2016)

Assays:
Test in all cases: KINOMEscan competition binding
Settings in all cases: compound 10.0 µM
MAPK14 (human) = MAPK14 (human) (UniProt Q16539)
STK3 (human) = STK3 (human) (UniProt Q13188)
MAPK11 (human) = MAPK11 (human) (UniProt Q15759)
PKN2 (human) = PKN2 (human) (UniProt Q16513)
LIMK2 (human) = LIMK2 (human) (UniProt P53671)
DCLK2 (human) = DCLK2 (human) (UniProt Q8N568)
[1] = system: RET (human), P07949 [M918T]
MAP3K11 (human) = MAP3K11 (human) (UniProt Q16584)
CDK9 (human) = CDK9 (human) (UniProt P50750)
CHEK1 (human) = CHEK1 (human) (UniProt O14757)
SYK (human) = SYK (human) (UniProt P43405)
PDGFRA (human) = PDGFRA (human) (UniProt P16234)
TEC (human) = TEC (human) (UniProt P42680)
[2] = system: ABL1 (human), P00519 [H396P]
STK32C (human) = STK32C (human) (UniProt Q86UX6)
EPHA2 (human) = EPHA2 (human) (UniProt P29317)
[3] = system: ABL1 (human), P00519 [T315I]
IRAK3 (human) = IRAK3 (human) (UniProt Q9Y616)
ADCK3 (human) = ADCK3 (human) (UniProt Q8NI60)
MAP2K1 (human) = MAP2K1 (human) (UniProt Q02750)
PRKD2 (human) = PRKD2 (human) (UniProt Q9BZL6)
RET (human) = RET (human) (UniProt P07949)
CAMK4 (human) = CAMK4 (human) (UniProt Q16566)
NEK9 (human) = NEK9 (human) (UniProt Q8TD19)
GSK3B (human) = GSK3B (human) (UniProt P49841)
PRKCQ (human) = PRKCQ (human) (UniProt Q04759)
[4] = system: ABL1 (human), P00519 [F317I]
[5] = molecular target: JAK2 JH1 catalytic (human) (UniProt O60674)
TEK (human) = TEK (human) (UniProt Q02763)
CDK15 (human) = CDK15 (human) (UniProt Q96Q40)
STK32B (human) = STK32B (human) (UniProt Q9NY57)
MAP2K6 (human) = MAP2K6 (human) (UniProt P52564)
TXK (human) = TXK (human) (UniProt P42681)
AURKA (human) = AURKA (human) (UniProt O14965)
BTK (human) = BTK (human) (UniProt Q06187)
PIK3CA (human) = PIK3CA (human) (UniProt P42336)
CDC2L2 (human) = CDC2L2 (human) (UniProt Q9UQ88)
SLK (human) = SLK (human) (UniProt Q9H2G2)
PDPK1 (human) = PDPK1 (human) (UniProt O15530)
MST4 (human) = MST4 (human) (UniProt Q9P289)
RPS6KA5 KD1 (human) = RPS6KA5 KD1 (human) (UniProt O75582)
EPHA4 (human) = EPHA4 (human) (UniProt P54764)

Sequence of AURKA (human) (O14965 whole entry, looked up): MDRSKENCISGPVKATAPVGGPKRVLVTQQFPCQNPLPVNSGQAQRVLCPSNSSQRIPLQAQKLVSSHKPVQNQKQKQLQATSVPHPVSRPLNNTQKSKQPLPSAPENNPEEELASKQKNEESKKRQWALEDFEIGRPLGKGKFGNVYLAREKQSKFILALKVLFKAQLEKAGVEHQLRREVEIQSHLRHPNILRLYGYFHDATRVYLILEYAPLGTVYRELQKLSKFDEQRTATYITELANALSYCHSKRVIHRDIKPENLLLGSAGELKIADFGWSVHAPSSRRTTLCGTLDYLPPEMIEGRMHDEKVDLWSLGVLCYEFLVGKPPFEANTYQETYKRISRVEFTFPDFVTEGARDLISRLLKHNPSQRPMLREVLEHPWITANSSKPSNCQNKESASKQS
Sequence of CDK9 (human) (P50750 whole entry, looked up): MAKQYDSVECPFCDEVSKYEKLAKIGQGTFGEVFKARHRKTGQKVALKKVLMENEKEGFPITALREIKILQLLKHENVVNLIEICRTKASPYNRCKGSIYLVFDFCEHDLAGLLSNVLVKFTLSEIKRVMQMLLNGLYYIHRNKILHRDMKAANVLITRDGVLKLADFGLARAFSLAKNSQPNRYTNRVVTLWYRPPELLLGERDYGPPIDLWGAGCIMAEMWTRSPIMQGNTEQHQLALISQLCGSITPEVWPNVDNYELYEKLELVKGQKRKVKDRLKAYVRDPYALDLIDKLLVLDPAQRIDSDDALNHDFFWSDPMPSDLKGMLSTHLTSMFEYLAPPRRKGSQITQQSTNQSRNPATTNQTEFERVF
Sequence of STK32B (human) (Q9NY57 whole entry, looked up): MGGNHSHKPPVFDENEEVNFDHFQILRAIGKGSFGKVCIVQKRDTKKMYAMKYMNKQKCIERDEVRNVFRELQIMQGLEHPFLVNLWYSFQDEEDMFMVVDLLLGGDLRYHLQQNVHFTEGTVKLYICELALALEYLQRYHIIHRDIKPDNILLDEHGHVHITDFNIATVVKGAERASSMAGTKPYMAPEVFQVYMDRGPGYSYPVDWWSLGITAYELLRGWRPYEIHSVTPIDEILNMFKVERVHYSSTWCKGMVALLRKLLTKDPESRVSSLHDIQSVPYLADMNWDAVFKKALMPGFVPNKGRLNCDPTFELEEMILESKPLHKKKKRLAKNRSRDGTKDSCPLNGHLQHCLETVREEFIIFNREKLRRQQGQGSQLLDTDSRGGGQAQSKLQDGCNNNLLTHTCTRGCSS
Sequence of MST4 (human) (Q9P289 whole entry, looked up): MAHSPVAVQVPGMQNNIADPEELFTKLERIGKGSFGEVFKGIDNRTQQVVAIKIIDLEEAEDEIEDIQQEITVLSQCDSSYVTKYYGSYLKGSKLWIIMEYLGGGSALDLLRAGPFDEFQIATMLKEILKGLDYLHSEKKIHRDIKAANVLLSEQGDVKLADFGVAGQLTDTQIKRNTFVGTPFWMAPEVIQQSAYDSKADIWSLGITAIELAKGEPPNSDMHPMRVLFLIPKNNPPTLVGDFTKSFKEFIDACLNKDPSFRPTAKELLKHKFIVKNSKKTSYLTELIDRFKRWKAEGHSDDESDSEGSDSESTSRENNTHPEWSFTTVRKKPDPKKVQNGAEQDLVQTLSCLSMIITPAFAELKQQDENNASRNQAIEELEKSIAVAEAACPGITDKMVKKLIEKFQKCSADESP
Sequence of MAP2K1 (human) (Q02750 whole entry, looked up): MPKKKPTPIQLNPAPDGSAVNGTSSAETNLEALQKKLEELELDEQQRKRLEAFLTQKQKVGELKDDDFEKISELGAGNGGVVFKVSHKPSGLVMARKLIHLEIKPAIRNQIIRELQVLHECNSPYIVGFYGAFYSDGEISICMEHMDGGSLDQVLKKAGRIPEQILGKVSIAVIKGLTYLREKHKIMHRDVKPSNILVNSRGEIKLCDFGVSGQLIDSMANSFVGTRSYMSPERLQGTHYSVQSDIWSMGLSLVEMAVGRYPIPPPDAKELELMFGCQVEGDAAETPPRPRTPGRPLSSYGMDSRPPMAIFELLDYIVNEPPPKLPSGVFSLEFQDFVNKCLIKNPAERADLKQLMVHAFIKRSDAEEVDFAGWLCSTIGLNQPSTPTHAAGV
Sequence of CAMK4 (human) (Q16566 whole entry, looked up): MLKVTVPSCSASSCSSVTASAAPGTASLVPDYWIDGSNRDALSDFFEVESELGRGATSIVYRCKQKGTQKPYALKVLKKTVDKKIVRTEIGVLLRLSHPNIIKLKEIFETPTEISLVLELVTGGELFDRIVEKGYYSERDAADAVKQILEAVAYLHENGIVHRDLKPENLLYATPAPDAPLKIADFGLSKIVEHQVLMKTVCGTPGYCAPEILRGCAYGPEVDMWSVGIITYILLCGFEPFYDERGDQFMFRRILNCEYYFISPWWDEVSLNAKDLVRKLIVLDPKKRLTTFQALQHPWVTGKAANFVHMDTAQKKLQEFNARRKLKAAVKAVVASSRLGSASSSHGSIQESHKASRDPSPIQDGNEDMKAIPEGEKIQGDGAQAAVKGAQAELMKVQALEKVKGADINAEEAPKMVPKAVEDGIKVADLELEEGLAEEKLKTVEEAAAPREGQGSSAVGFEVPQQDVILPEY
Sequence of JAK2 JH1 catalytic (human) (O60674 whole entry, looked up): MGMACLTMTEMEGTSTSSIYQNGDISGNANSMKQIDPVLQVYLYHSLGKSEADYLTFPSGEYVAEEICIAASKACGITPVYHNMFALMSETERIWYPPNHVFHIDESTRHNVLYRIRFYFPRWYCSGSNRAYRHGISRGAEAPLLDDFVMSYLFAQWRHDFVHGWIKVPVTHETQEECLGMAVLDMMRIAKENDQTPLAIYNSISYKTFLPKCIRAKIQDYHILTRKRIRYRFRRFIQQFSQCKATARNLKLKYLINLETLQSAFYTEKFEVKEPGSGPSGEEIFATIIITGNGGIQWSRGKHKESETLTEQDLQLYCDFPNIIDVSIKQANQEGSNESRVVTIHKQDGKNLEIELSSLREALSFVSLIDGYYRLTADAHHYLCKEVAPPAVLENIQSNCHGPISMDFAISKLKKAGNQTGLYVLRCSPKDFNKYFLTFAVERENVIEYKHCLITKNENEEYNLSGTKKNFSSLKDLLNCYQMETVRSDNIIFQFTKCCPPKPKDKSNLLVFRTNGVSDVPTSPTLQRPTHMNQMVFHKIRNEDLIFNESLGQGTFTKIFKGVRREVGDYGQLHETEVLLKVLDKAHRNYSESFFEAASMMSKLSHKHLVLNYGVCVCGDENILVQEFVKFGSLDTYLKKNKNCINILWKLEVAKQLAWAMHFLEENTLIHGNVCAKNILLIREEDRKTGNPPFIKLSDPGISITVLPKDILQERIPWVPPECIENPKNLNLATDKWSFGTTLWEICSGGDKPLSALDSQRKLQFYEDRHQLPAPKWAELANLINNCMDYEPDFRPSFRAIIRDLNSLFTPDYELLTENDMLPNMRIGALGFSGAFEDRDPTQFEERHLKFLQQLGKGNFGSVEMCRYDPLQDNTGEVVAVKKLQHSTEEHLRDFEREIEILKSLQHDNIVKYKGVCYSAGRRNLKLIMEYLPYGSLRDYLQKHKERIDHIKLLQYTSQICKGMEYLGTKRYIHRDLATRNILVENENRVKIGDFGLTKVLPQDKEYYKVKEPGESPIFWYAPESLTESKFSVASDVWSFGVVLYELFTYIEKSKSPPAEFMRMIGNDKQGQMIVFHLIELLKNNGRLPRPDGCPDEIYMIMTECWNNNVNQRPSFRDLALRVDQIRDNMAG
Sequence of LIMK2 (human) (P53671 whole entry, looked up): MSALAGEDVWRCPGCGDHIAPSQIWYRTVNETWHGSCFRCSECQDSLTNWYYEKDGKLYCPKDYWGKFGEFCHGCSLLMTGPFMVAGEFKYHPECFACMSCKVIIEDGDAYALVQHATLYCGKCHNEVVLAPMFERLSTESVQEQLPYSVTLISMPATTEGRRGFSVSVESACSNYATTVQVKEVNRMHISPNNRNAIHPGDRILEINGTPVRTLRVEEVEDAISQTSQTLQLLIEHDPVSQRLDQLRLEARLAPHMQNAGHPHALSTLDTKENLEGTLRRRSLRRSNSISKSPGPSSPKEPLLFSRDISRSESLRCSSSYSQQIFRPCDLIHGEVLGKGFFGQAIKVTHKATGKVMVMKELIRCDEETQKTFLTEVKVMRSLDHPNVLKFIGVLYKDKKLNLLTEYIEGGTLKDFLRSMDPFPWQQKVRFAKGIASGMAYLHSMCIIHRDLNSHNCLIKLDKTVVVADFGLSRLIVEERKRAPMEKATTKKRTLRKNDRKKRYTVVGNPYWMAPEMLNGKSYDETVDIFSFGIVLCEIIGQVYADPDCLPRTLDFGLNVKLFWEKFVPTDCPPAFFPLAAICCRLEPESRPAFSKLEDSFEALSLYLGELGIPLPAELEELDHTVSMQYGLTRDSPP
Sequence of BTK (human) (Q06187 whole entry, looked up): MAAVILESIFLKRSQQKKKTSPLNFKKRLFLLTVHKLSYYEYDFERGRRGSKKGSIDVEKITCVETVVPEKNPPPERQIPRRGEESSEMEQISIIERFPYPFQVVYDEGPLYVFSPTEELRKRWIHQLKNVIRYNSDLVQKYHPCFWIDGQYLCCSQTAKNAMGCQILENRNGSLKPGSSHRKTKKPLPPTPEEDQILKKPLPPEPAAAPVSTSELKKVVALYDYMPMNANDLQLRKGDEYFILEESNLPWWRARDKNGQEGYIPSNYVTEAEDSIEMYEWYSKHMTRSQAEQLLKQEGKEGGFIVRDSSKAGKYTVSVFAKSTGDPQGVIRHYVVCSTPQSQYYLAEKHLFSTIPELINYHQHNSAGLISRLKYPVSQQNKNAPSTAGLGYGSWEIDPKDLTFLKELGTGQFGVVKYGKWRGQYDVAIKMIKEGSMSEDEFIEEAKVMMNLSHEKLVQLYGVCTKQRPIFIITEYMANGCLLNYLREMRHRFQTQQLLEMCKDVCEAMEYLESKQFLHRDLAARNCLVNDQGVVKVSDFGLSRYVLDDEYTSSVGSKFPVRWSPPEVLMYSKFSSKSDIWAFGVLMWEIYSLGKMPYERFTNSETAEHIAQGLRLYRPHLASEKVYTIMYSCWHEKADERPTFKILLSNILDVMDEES

COc1cc(N2CCN(C)CC2)ccc1Nc1ncc2c(n1)N(C)c1ccccc1N(C)C2=O
kinase still bound, per cent of control (MAPK14 (human)): 100% | kinase still bound, per cent of control (STK3 (human)): 98% | kinase still bound, per cent of control (MAPK11 (human)): 100% | kinase still bound, per cent of control (PKN2 (human)): 100% | kinase still bound, per cent of control (LIMK2 (human)): 86% | kinase still bound, per cent of control (DCLK2 (human)): 68% | kinase still bound, per cent of control [1]: 100% | kinase still bound, per cent of control (MAP3K11 (human)): 100% | kinase still bound, per cent of control (CDK9 (human)): 100% | kinase still bound, per cent of control (CHEK1 (human)): 100% | kinase still bound, per cent of control (SYK (human)): 99% | kinase still bound, per cent of control (PDGFRA (human)): 100% | kinase still bound, per cent of control (TEC (human)): 100% | kinase still bound, per cent of control [2]: 100% | kinase still bound, per cent of control (STK32C (human)): 100% | kinase still bound, per cent of control (EPHA2 (human)): 100% | kinase still bound, per cent of control [3]: 100% | kinase still bound, per cent of control (IRAK3 (human)): 82% | kinase still bound, per cent of control (ADCK3 (human)): 85% | kinase still bound, per cent of control (MAP2K1 (human)): 85% | kinase still bound, per cent of control (PRKD2 (human)): 100% | kinase still bound, per cent of control (RET (human)): 100% | kinase still bound, per cent of control (CAMK4 (human)): 100% | kinase still bound, per cent of control (NEK9 (human)): 97% | kinase still bound, per cent of control (GSK3B (human)): 82% | kinase still bound, per cent of control (PRKCQ (human)): 83% | kinase still bound, per cent of control [4]: 67% | kinase still bound, per cent of control [5]: 100% | kinase still bound, per cent of control (TEK (human)): 100% | kinase still bound, per cent of control (CDK15 (human)): 68% | kinase still bound, per cent of control (STK32B (human)): 100% | kinase still bound, per cent of control (MAP2K6 (human)): 65% | kinase still bound, per cent of control (TXK (human)): 100% | kinase still bound, per cent of control (AURKA (human)): 76% | kinase still bound, per cent of control (BTK (human)): 78% | kinase still bound, per cent of control (PIK3CA (human)): 100% | kinase still bound, per cent of control (CDC2L2 (human)): 100% | kinase still bound, per cent of control (SLK (human)): 100% | kinase still bound, per cent of control (PDPK1 (human)): 79% | kinase still bound, per cent of control (MST4 (human)): 91% | kinase still bound, per cent of control (RPS6KA5 KD1 (human)): 100% | kinase still bound, per cent of control (EPHA4 (human)): 95%
